The values that follow come from patent US12178838B2, “Synthetic neuromodulatory peptides” (Lactocore, Inc., priority 2019, dated 2024).

For series [1], the system named is benzodiazepine site of GABAA receptors. As for the experimental part:
The incubation mixture (final volume 0.5 ml) contained 50 μl of […]

Details of series [2]: species or system rats. Conditions: rat, in vivo. How it is done:
Tritium-labeled peptide FQSE (SEQ ID NO:10) was administered intranasally (i.n.) at a dose of 500 μg/kg diluted in saline. The administered sample contained 2000 pKi of tritium-labeled peptide [^3H] FQSE (SEQ ID NO:10). In 6 minutes after the administration, test samples of brain, blood and urine were obtained.
The study was carried out using tritium-labeled peptide FQSE (SEQ ID NO:10). For that, rats were administered with 2000 pKi [^3H] FQSE (SEQ ID NO:10) in dose 500 μg/kg (about 150 μg). The solutions administered to animals were prepared using saline solution. The volume of the solution for intranasal administration was 20 μl for rats.
In rat experiments, product FQSE (SEQ ID NO:10) was administered as a single, bolus, intranasal injection. Preliminarily, rats were anesthetized with chloral hydrate (300 mg/kg), and in 10 min, product FQSE (SEQ ID NO:10) was administered in volume 20 μl, in dose 500 μg/kg which contained 2000 pKi of labeled peptide [^3H]FQSE (SEQ ID NO:10). Rats were decapitated in 6 minutes after the product administration. […]
The quantitative analysis of peptides was performed with HPLC on column Kromasil C18, 4×150 mm in methanol gradient (0-40%), presence of 0.08% TEA and 0.02% HBA (heptafluorobutyric acid). The fractions containing peptide FQSE (SEQ ID NO:10) were collected, and their radioactivity was determined with liquid scintillation counting.

Where two headings read alike, the source gives them in different places. Residues, ends and D or L forms follow the SMILES beside them.

Take `NC(=O)CC[C@H](NC(=O)[C@@H](N)Cc1ccccc1)C(=O)N[C@@H](CO)C(=O)N[C@@H](CCC(=O)O)C(=O)O` [FQSE] (H-FQSE-OH): the “Specific binding of [3H]-Flunitrazepam, relative to control levels” value in series [1] (Diazepam 10^−6M + FQSE 10^−4M, 25 min pre-incubation + 30 min incubation, 4° C.) is listed as 101.07%; in series [1] (Diazepam 10^−6M + FQSE 10^−4M, 25 min pre-incubation + 30 min incubation, 24° C.) it was 100.58%; in series [1] (Diazepam 10^−6M + FQSE 10^−4M, 30 min incubation, 4° C.), 100.27%; in series [1] (Diazepam 10^−6M + FQSE 10^−4M, 30 min incubation, 24° C.) it was 100.95%; in series [1] (Diazepam 10^−6M + FQSE 10^−5M, 25 min pre-incubation + 30 min incubation, 4° C.) it was 101.07%; in series [1] (Diazepam 10^−6M + FQSE 10^−5M, 25 min pre-incubation + 30 min incubation, 24° C.), 99.78%. Also, the “Specific binding of [3H]-Flunitrazepam, relative to control levels” value in series [1] (Diazepam 10^−6M + FQSE 10^−5M, 30 min incubation, 4° C.) amounted to 100.04%; in series [1] (Diazepam 10^−6M + FQSE 10^−5M, 30 min incubation, 24° C.), 100.70%. In addition, in series [2], the blood-brain barrier penetration entry is listed as “can penetrate blood-brain barrier”.
